Literature values, collected in US20100273275A1, “Methods of determining levels of steroid fractions utilizing SHBG calculations” (priority 2005, published 2010).

Legend:
SHBG = target: T1, SHBG (Homo sapiens, UniProt P04278); conditions: for KPS (association constant for SHBG-binding to a steroid ligand): constants used for calculations, Dunn et al. (1981), Moll et al. (1981), Rosner (1991)
T1 sequence (P04278 30-402): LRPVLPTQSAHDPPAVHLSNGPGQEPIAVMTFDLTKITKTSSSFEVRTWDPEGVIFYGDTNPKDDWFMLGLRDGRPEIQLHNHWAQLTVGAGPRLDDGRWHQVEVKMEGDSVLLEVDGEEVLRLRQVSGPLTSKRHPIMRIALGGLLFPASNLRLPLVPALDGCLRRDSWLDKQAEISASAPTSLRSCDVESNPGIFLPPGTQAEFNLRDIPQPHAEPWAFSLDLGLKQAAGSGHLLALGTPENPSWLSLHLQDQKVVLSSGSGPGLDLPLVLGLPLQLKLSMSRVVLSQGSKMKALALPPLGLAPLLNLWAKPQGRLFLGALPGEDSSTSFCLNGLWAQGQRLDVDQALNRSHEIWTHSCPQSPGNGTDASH

albumin = albumin (Homo sapiens, UniProt P02768); conditions: for KAS (association constant for albumin-binding to a steroid ligand): constants used for calculations, Dunn et al. (1981), Moll et al. (1981), Rosner (1991)
[1] = constant used for free and bioavailable testosterone calculation

Chain of albumin (P02768 25-609): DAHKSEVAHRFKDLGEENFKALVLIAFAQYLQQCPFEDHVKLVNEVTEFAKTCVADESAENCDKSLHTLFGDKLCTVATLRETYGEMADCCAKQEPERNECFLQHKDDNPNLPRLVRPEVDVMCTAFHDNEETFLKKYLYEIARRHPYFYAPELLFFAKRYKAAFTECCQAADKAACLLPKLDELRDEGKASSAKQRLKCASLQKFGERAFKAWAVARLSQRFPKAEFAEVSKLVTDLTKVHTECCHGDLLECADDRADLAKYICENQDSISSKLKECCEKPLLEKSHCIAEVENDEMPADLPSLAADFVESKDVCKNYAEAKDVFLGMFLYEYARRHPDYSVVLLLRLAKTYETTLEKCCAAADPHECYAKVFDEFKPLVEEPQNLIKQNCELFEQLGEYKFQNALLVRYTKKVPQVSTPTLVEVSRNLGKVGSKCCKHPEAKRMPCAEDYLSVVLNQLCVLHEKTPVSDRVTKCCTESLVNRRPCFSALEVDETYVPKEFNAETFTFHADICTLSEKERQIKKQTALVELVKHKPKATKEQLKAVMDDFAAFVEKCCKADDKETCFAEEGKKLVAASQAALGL

Row | SMILES | KPS (association constant for SHBG-binding to a steroid ligand) (SHBG) | KAS (association constant for albumin-binding to a steroid ligand) (albumin) | KS (association constant, SHBG) (SHBG; [1]) | KA (association constant, albumin) (albumin; [1])
1 | C[C@]12CCC(=O)C=C1CC[C@@H]1[C@@H]2CC[C@]2(C)C(=O)CC[C@@H]12 [Androstenedione] | 0.029 [M^−1] × 10^9 | 20000 [M^−1] |  | 
2 | C[C@]12CCC(=O)C[C@@H]1CC[C@@H]1[C@@H]2CC[C@]2(C)[C@@H](O)CC[C@@H]12 [Dihydrotestosterone] | 2.0 [M^−1] × 10^9 | 79800 [M^−1] |  | 
3 | C[C@]12CC[C@H](O)CC1=CC[C@@H]1[C@@H]2CC[C@]2(C)C(=O)CC[C@@H]12 [Dehydroepiandrosterone] |  | 40000 [M^−1] |  | 
4 | C[C@]12CC[C@H]3[C@@H](CCC4=CC(=O)CC[C@@]43C)[C@@H]1CC[C@@H]2O [Testosterone] |  | 36000 [M^−1] | 1e+09 L/mol | 36000 L/mol
5 | C[C@]12CC[C@H](O)CC1=CC[C@@H]1[C@@H]2CC[C@]2(C)C(=O)CC[C@@H]12 [Dihydroandrosterone] |  | 180000 [M^−1] |  | 
